The target of the assay is Neuraminidase (Influenza A virus (A/Puerto Rico/8/1934(H1N1)), UniProt P03468).

Structures are written as SMILES.

Neuraminidase (Influenza A virus (A/Puerto Rico/8/1934(H1N1)), UniProt P03468), sequence (P03468 whole entry): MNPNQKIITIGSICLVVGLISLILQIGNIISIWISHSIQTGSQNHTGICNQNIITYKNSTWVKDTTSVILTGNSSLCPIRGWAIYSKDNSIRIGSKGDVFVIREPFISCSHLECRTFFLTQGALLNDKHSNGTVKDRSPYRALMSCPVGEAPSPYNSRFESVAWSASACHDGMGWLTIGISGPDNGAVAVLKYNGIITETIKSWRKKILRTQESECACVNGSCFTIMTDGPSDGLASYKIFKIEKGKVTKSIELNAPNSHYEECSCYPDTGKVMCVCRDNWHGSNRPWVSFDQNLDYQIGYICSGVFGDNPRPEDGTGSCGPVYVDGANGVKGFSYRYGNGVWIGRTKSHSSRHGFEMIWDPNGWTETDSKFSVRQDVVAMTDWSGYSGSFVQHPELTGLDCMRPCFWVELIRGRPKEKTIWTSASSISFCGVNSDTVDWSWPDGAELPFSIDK
Description: inhibition of Influenza A Sialidase

In general, Ki refers to a dissociation constant, usually derived from enzyme kinetics or from competition with a known ligand. Low readings indicate a stronger hold on the target, high ones a looser hold on the target. Compound `CC(=O)NC1C(N)C=C(C(=O)O)OC1[C@H](O)[C@H](O)CO` (stereo partly specified) gave a Ki of 40 nM.

The values above are taken from ChEMBL document CHEMBL1127812, “Molecular modeling studies on ligand binding to sialidase from influenza virus and the mechanism of catalysis” (J Med Chem, 1994).
